Reference: patent publication US20250313900A1, “COMPOSITIONS AND THERAPEUTIC AGENTS FOR MODULATING INFLAMMATORY RESPONSES ON BOTH TUMOR AND IMMUNE CELLS” (THE METHODIST HOSPITAL, priority 2022, published 2025)
Read-outs that look alike come from different tables or passages of the source.

What was measured:
[1] = system: vinculin; test: Western blots of vinculin expression, 4T1 tumor model; type: cell-based; settings: CMTM4 knockout, 1 mm, 0, 3, 6 and 24 hours
Method: 1 mm of C10H14O3 (4-Ethoxy-3-methoxybenzyl alcohol)(28A), C9H16N2O6 (Tetrahydrouridine)(28B), or C10H14O3 (5-tert-butyl-2-methyl-3-furoic acid)(28C) was administered to control mice or CMTM4 knockouts and expression measured after 0, 3, 6, and 24 hours.

[2] = system: p-Akt/p-mTOR; test: p-Akt/p-mTOR (compound screening); type: cell-based
Method: (§1) Protein samples from cells were separated on sodium dodecyl sulfate (SDS)-polyacrylamide gels and transferred to PVDF membranes. The membranes were blocked in 4% skim milk solution, incubated with the appropriate antibody, and subsequently incubated with a secondary antibody conjugated with horseradish peroxidase. The antibodies for p-NF-κBp65, NF-κBp65. EGFR, PTEN, Akt, p-Akt, mTOR, p-mTOR, S6, p-S6, Rab4, Rab5a, Rab11, Tubulin, actin, vinculin, and CMTM4 were purchased from Cell Signaling Technology, Inc. (Beverly, MA) and the antibody for Rab21 was purchased from Santa Cruz Biotechnology. The immunoreactive bands were visualized using the ECL system (Thermo Scientific). Control and CMTM4 KD cell lysates were analyzed using the proteome profiler mouse phospho-receptor tyrosine kinase array kit (R&D Systems) following the manufacturer's instructions. For immunoprecipitation, Dynabeads His-Tag isolation and pulldown kit (Life Technologies) was used. The pull-down samples were subjected to immunoblot assays.

[3] = target: T1, CMTM4 (Mus musculus, UniProt Q8CJ61); test: CMTM4 level (compound screening); type: cell-based
T1 construct: endogenous in cells; LLC and 4T1 are the only lines named in the screen
T1 sequence (Q8CJ61 whole entry): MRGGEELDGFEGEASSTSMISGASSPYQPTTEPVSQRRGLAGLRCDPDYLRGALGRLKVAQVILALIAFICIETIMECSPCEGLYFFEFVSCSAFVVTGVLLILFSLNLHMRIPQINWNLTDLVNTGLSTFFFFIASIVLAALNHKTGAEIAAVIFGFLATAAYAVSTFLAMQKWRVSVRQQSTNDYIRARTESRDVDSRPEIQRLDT
Method: as §1

[4] = system: glycolysis; test: Test glycolysis (compound screening); type: cell-based
Description: (§2) The initial screening was followed by the following assessments: 1) MHC 11 assay by high-throughput flow cytometry. 2) IL-6 production. 3) NF-kB promoter activity using CMTM4-expressing NF-kB/secreted embryonic alkaline phosphatase (SEAP) reporter stable cell lines using both LLC and 4T1 cells. 4) Inhibition of EGF-mediated G-CSF secretion from tumor cells. 5) Test glycolysis (FIG. 13).

[5] = system: IL-6; test: IL-6 production (compound screening); type: cell-based
Description: as §2

[6] = system: CMTM4; test: Western blot of CMTM4 protein in HCC827 CT cells; type: cell-based, human; settings: 1 μM
[7] = system: MHC II; test: MHC II assay by high-throughput flow cytometry (compound screening); type: cell-based
Description: as §2

[8] = system: NF-kB promoter activity in LLC cells; test: NF-kB promoter activity, CMTM4-expressing NF-kB/SEAP reporter stable LLC cells; type: cell-based, murine
Description: as §2

[9] = system: G-CSF; test: Inhibition of EGF-mediated G-CSF secretion from tumor cells; type: cell-based
Method: as §2
Secretion of G-CSF was determined using ELISA kits according to the manufacturer's instructions (Life Technologies).

[10] = system: NF-kB promoter activity in 4T1 cells; test: NF-kB promoter activity, CMTM4-expressing NF-kB/SEAP reporter stable 4T1 cells; type: cell-based, murine
Description: as §2

[11] = system: EGFR; test: EGFR levels in LLC CMTM4 KD cells after lipid raft depletion; type: cell-based, murine
Method: Flotillin-1 was used as a marker of lipid raft and vinculin was used as a maker of the non-raft fraction. […] FIGS. 8D and 8E show LLC CMTM4 KD cells were treated with MβCD and real-time PCR (8D) and western blot (8E) were performed to determine EGFR levels. *p<0.05. FIG. 8F show 293T cells were transfected with CMTM4 WT-mcherry (upper) or CMTM4 MT-mcherry (lower) with EGFR-EGFP and then, cells were treated with EGF for 1 hour. Representative confocal images are shown. FIG. 8G show RNAseq data showing Rab expression between control and CMTM4 KD LLC cells. FIGS. 8H and 8I show Rab expression in control and CMTM4 KD LLC cells were determined by qRT-PCR (H) and western blot (8I). FIGS. 8J, 8K, and 8L show 293T cells were transfected with CMTM4-EGFP and Rab4 (mCherry), Rab5 (mCherry), or Rab11 (mCherry), and then, cells were treated with EGF for 1 hour. Representative confocal images are shown. Pearson correlation coefficient (PCC) was measured from 20 individual cells. FIGS. 8M and 8N show EGFR-EGFR and Lamp-1 RFP were transfected to LLC control and CMTM4 KD cells. Confocal imaging was taken before (8M) and after (8N) treatment with EGF. Pearson correlation coefficient (PCC) was measured from 20 individual cells. *p<0.05, **p<0.01, ***P<0.001, ****P<0.0001. Scale bar: 3 μm. […]

Molecule	CMTM4 [3]	p-Akt/p-mTOR [2]	Glycolysis [4]	IL-6 (%) [5] [%]	MHC II (%) [7] [%]	other results
CCOc1ccc(CO)cc1OC [4-Ethoxy-3-methoxybenzyl alcohol]						vinculin expression [1]: significantly increased
Cc1oc(C(C)(C)C)cc1C(=O)O [5-tert-butyl-2-methyl-3-furoic acid]						vinculin expression [1]: significantly increased
N#Cc1cn([C@@H]2O[C@H](CO)[C@@H](O)[C@H]2O)c2ncnc(N)c12 [C12H13N5O4, Toyocamycin, Toyocamycin]	No difference	Decrease	Inhibit	−3.717		
C[C@H]1O[C@H](O[C@H]2[C@H](O)[C@@H](O)[C@@H](O)[C@H](O)[C@@H]2O)[C@@H](N)C[C@@H]1NC(=N)C(=O)O [C14H25N3O9, Kasugamycin, Kasugamycin]	No difference	Decrease	Inhibit	1.934	483.4	NF-kB (%)-LLC [8]: 46.83%; G-CSF (%) [9]: 66.41%; NF-kB (%)-4T1 [10]: 44.19%
COc1cc(-c2oc3cc(O)cc(O)c3c(=O)c2O)ccc1O [C16H12O7, Isorhamnctin, Isorhamnetin]	No difference	Decrease	Inhibit	−11.581		
CO[C@H]1Nc2c(ccc(C)c2O)C(=O)N2C=C(/C=C/C(N)=O)C[C@@H]12 [C17H19N3O4, Anthramycin methyl ether, Anthramycin methyl ether]	No difference	Decrease	Inhibit	−1.982		
CCCCC1CCCCCCc2[nH]c(/C=C3\N=C(c4ccc[nH]4)C=C3OC)cc21.Cl (centres unmarked) [C25H33N3O•ClH, Butylcycloheptylprodiginine Hydrochloride]	Decrease		Inhibit	−6.005	426.2	NF-kB (%)-LLC ([8]; LLC reporter cells): 53.61%; G-CSF (%) ([9]; EGF-mediated secretion): 4.236%; NF-kB (%)-4T1 ([10]; 4T1 reporter cells): 45.8%
Cc1c2ccncc2c(C)c2c1[nH]c1ccccc12 [Ellipticine]	No difference	Decrease	Inhibit	−15.7288		CMTM4 protein expression [6]: decreased
COc1ccc2c3c([nH]c2c1)[C@H](C=C(C)C)N1C(=O)[C@@H]2CCCN2C(=O)[C@@H]1C3 [Fumitremorgin C]	No difference	Decrease	Inhibit	10.85	5071	NF-kB (%)-LLC [8]: 42.89%; G-CSF (%) [9]: 6.939%; NF-kB (%)-4T1 [10]: 49.73%
methyl-beta-cyclodextrin [methyl-beta-cyclodextrin (MβCD)]						EGFR mRNA level ([11]; real-time PCR): increased; EGFR protein level ([11]; western blot): increased

The next lines start with results.

CMTM4 [3]	Molecule	p-Akt/p-mTOR [2]	Glycolysis [4]	IL-6 (%) [5] [%]	MHC II (%) [7] [%]	other results
No difference	C/C=C/C(=O)O [C4H6O2, CROTONIC ACID, CROTONIC ACID]	Decrease	Inhibit	4.438		
No difference	O=C1NC(O)CCN1[C@@H]1O[C@H](CO)[C@@H](O)[C@H]1O (some centres unmarked) [C9H16N2O6, Tetrahydrouridine, Tetrahydrouridine]	Decrease	Inhibit	−0.1232		vinculin expression [1]: significantly increased; CMTM4 protein expression [6]: decreased
No difference	OC[C@H]1O[C@@H](n2cnc3c(O)ncnc32)[C@H](O)[C@@H]1O [C10H12N4O5, Inosine, Inosine]		Inhibit	−9.437		CMTM4 protein expression [6]: decreased
No difference	Cc1ccccc1OCC(O)CO (centres unmarked) [C10H14O3, Mephenesin, Mephenesin]	Decrease	Inhibit	0.5625		
No difference	COc1cc(O)c2c(=O)c(O)c(-c3ccc(O)c(O)c3)oc2c1 [C16H12O7, Rhamnetin, Rhamnetin]	Decrease	Inhibit	−5.243		
No difference	O=C(/C=C/c1ccc(O)c(O)c1)O[C@H](Cc1ccc(O)c(O)c1)C(=O)O [C18H16O8, Rosmarinic Acid, Rosmarinic Acid]	Decrease	Inhibit	−0.1232		
No difference	CCc1cccc2c1c(O)c(C(=O)N(CC)c1ccccc1)c(=O)n2C [C21H22N2O3, Paquinimod, Paquinimod]	Decrease	Inhibit	−0.809	520.6	NF-kB (%)-LLC ([8]; LLC reporter cells): 32.6%; G-CSF (%) ([9]; EGF-mediated secretion): 3.464%; NF-kB (%)-4T1 ([10]; 4T1 reporter cells): 46.87%
Decrease	CC[C@]12CCCN3CCc4c(n(c5ccccc45)[C@@](O)(C(=O)OC)C1)[C@@H]32 [C21H26N2O3, Vincamine, Vincamine]	No difference	Inhibit	5.815		
No difference	C[C@@H]1C[C@@H]2CCCC(O)=C2C(=O)O1 [Compound C10H14O3, Ramulosin]	Decrease	Inhibit	−0.1232	340.5	NF-kB (%)-LLC ([8]; LLC reporter cells): 34.35%; G-CSF (%) ([9]; EGF-mediated secretion): 3.85%; NF-kB (%)-4T1 ([10]; 4T1 reporter cells): 42.04%
Decrease	Lobophorin F [C54H78N2O17, Lobophorin F]	Decrease	Inhibit	−12.2043	360.5	NF-kB (%)-LLC ([8]; LLC reporter cells): 37.64%; G-CSF (%) ([9]; EGF-mediated secretion): 1.147%; NF-kB (%)-4T1 ([10]; 4T1 reporter cells): 40.07%
